We go through five compounds from patent US8476319B2, “Methods of treating ear infections” (3M Innovative Properties Company, priority 2005, dated 2013).

In data set [1] the test system is Organ of Corti hair cells. Nature of the data set: Ototoxicity testing in chinchillas (trans bullar injection, Organ of Corti surface preparation). The following applies: 0.1 cc into middle ear, two injections, 17 days. The text has this:
Initial screening of selected components for ototoxic effect was preformed using chinchillas. The compounds or compounds plus vehicle were placed in proximity to the round window membrane of the chinchilla and the tissues evaluated for ototoxic insult.
General Test Procedure: Chinchillas were mildly anesthetized using 0.1 cc IM ketamine. The skin overlying the ventral aspect of the left and right bulla were shaved and surgically prepped. An amount (0.1 cubic centimeter (cc)) of the test material was placed in the middle ear near the round window niche using a 1 cc syringe with a 23 guage needle by trans bullar injection. Three days later the procedure was repeated using the same test material in each ear. Fourteen days after the second injection (total survival time=17 days) the animals were sacrificed. The bullae were removed, the cochlea isolated and perfused with fixative through the round window membrane. After standard preparation (fixation and decalcification) the samples were dissected and the Organ of Corti isolated and evaluated for ototoxic insult. The surface preparation analysis of the Organ of Corti is a universally accepted method of evaluating hair cell loss due to ototoxic insult. The chinchilla is the standard test animal used and a 14 day survival time is adequate to screen for gross hair cell disruption due to ototoxic effect. The materials were tested in both a right and left ear but using two different animals.
This served as a positive control.

Data set [2] can be described thus: Transport through the tympanic membrane, GC of saline recovered from middle ear. Format: in vivo, chinchilla. The following applies: for formulation component detected by GC in saline recovered from the middle ear: Example 2 formulation in outer ear next to tympanic membrane, samples at 15, 30, 60 min. The method, then:
Example 2 formulation was evaluated for transportability across the ear drum (tympanic membrane) and into the middle ear with an animal model test using chinchillas (400 g to 500 g). A cotton plug saturated with Example 2 formulation was placed against the outer ear membrane of a chinchilla. An opening was made into the middle ear through the bulla and 1 mL saline was placed in the middle ear. At 15, 30, and 60 min. the saline was withdrawn and replaced with fresh saline. Tympanometry was completed before and after the test compositions were applied to ensure the tympanic membrane was intact (without perforations). The saline samples were kept at 4° C. until assayed.
GC Analysis: Six samples of saline recovered from the middle ear of a chinchilla were analyzed by GC. They were recovered from both the left and right ears of the test animal at 15, 30, and 60 min after an antibacterial formulation was placed in the outer ear next to the tympanic membrane. The GC analysis detected the formulation components of GML, FINSOLV NT, and benzoic acid.
Standard preparation: A single external standard of GML (Medchem—97%) at 1 mg/mL was prepared in CHCl3. Standards of methyl benzoate and FINSOLV NT were also available. Saline (0.9% NaCl) was prepared in the lab.
Sample Extraction: The six samples were contained in 1.5 mL clear plastic micorcentrifuge tubes. The 30- and 60-min samples were clear while the 15-min samples contained a water insoluble residue (there appeared to be so much antimicrobial composition in the sample collected a separate phase was noted by the analyst). The liquid was vortexed and transferred to separate 10 mL graduated clinical centrifuge tubes and the volume recorded. The sample tubes were rinsed once with approximately 0.5 mL saline vortexed and transferred to the centrifuge tube. The microtubes were rinsed a second time with approximately 0.75 mL chloroform which was also transferred to the clinical centrifuge tube. The chloroform dissolved the residue in the 15 min samples. The liquid level in the centrifuge tubes was brought to 1.7 mL by the addition of saline solution. A sample (4.5 mL) of CHCl3 was then added to the centrifuge tubes using a 5-mL graduated glass pipette. The tubes were then sealed with TEFLON screw cap tops and vortexed for 2 min. They were then centrifuged in an IEC clinical centrifuge until 2 clear phases formed (approximately 5 min). Using Pasture pipettes, the lower (organic) phases were quantitatively transferred to a set of preweighed 7-mlL vials. The extracts were treated with diazomethane (DAM) which formed the methyl esters of acids present, in this case methyl benzoate from benzoic acid present. Extracts were placed on a warm heating block and taken to dryness under a stream of nitrogen. Once constant weight was obtained, the samples were re-weighed and the net weight was recorded. Using a graduated pipette enough CHCl3 was added back to the 15 min extracts to achieve a concentration of 1 mg/mL in GML. The 30 and 60 min samples had much less weight so an arbitrary ½ mL of CHCl3 was added. An aliquot of each sample was then transferred to an autosampler vial and analyzed by GC using the conditions below. Gas Chromatography: • Instrument—HP 5890 • Column—15 meter STABILWAX-DA, 0.25 μm film 0.25 mm ID • Carrier—He, 2.07×10^5 N/m^2(30 psi) constant pressure • Injection—2 μL split 1:60, injector temp 250° C. • Liner—Restek SILTEK deactivated liner with SILTEK • deactivated glass wool (catalog number 22406-213.5) • Program—110° C. initial, 7° C./min to 250°, hold 10 minutes • Detector—FID at 250° C.
The total recovered GML was determined by direct GC analysis of the fractions. […] As indicated above a standard of methyl benzoate was substituted for benzoic acid. The components have been identified and the FINSOLV TN contributes most of the peak area. […]

[3] abbreviates: recovered from middle ear saline 15 minutes after Example 2 formulation placed against tympanic membrane.
Setting [4] is: recovered from middle ear saline 30 minutes after Example 2 formulation placed against tympanic membrane.
Where [5] appears, read: total of 15, 30 and 60 minute samples, Example 2 formulation.

Take `CCCCCCCCCCCCCC(=O)OC(C)C` [IPM, Isopropyl myristate]: the “Ototoxicity Result” value in data set [1] (100%) was “Toxic (toxic (rating 2-4))”.

As for “Propylene glycol monocaprylate [PG monocaprylate]”, the “Ototoxicity Result” value in data set [1] (0.25% in water) and in data set [1] (1% / 1.0% in water) was “No toxicity (no toxicity (rating 1))” each time.

As to `CCCCC(CC)COC(=O)CC(C(=O)OCC(CC)CCCC)S(=O)(=O)[O-].[Na+]` (stereo not drawn) [GEMTEX (DOSS), Dioctylsulfosuccinate, sodium salt], the “Ototoxicity Result” value in data set [1] (1% / 1.0% in water) was “Toxic (toxic (rating 2-4))”.

Take `CCCCCCCCCCCC(=O)OCC(O)CO` (stereo not drawn) [GML, Glycerol monolaurate]: in data set [2], the “formulation component detected by GC in saline recovered from the middle ear” value is reported as “detected”. Further, the “Left ear GML” value is listed as 10.3 mg in data set [2] (setting [3]) and 0.03 mg in data set [2] (setting [4]). Also, the “Right ear GML” value is listed as 2.35 mg in data set [2] (setting [3]) and 0.98 mg in data set [2] (setting [4]). Further, the “Left ear GML (mg), Total” value in data set [2] (setting [5]) is 10.33 mg. The “Right ear GML (mg), Total” value in data set [2] (setting [5]) came to 3.33 mg. The “Ototoxicity Result” value in data set [1] (0.5% in water) is reported as “No toxicity (no toxicity (rating 1))”; in data set [1] (1% / 1.0% in water), “No toxicity (no toxicity (rating 1))”; in data set [1] (1% in IPM), “Toxic (toxic (rating 2-4))”.

As for `O=C(O)c1ccccc1` [benzoic acid, Benzoic acid], in data set [2], the “formulation component detected by GC in saline recovered from the middle ear” value is reported as “detected”.
